In patent publication US12697318B2, “Anti-inflammatory agent containing rare fatty acid” (Noster Inc., priority 2014, dated 2026):

These molecules were tested on mouse-derived macrophage-like cell line RAW264.7 (assay: Evaluation of NO production amount by Griess method). Details: general statement of effect; based on suppression of NO production by M1 macrophage.
Type: cell-based
Procedure: The mouse-derived macrophage-like cell line RAW264.7 was seeded in a 48 well plate 1×10^5 cells per well. After culture for 5 hr, Escherichia coli-derived lipopolysaccharide (LPS) was added to 100 ng/mL over 24 hr to activate RAW264.7 cells. Simultaneously with LPS, various compounds (No. 1-No. 17, LA, ALA) were added at 10 μM, and the concentration of […] (NO2^−), which is an oxide of nitric oxide (NO) produced by macrophage activation, in the culture medium was measured. The amount of NO2 in the culture medium was quantified by the Griess method and in reference to Shan Lin et al., Molecular Nutrition and Food Research 57 (2013) p 1135-1144, “Auraptene suppresses inflammatory responses in activated RAW264 macrophages by inhibiting p38 mitogen-activated protein kinase activation”, the section of Material and methods Measurements of TNF-α, MCP-1, and NO concentrations. The quantification was actually performed as follows. RAW264.7 culture medium treated with LPS and various compounds for 24 hr was recovered. 0.2% N-(1-naphthyl) ethylenediamine and 2% Sulfanilamide/10% H3PO4 were blended at 1:1 immediately before reaction to give a Griess reagent, RAW264.7 culture medium and the Griess reagent were mixed at 1:1 and reacted at room temperature for 10 min. After completion of the reaction, absorbance at 550 nm was measured. NaNO2 was used as the NO2^− standard product, and the NO2^− concentration in the culture medium was calculated. The concentration of the sample was adjusted with ethanol. Ethanol was used as a negative control, and BAY11-7082 (5 μM), which is a IκBα phosphorylation inhibitor, was used as a positive control.
With `CCCCC/C=C\CC(O)CCCCCCCCC(=O)O` (stereo not drawn) [No. 4, 10-hydroxy-cis-12-octadecenoic acid] the anti-inflammatory action was “have an anti-inflammatory action”.
For `CCCCCC(O)CC/C=C\CCCCCCCC(=O)O` (stereo not drawn) [No. 14, 13-hydroxy-cis-9-octadecenoic acid], the anti-inflammatory action was “have an anti-inflammatory action”.
For `CCCCCC(=O)CC/C=C\CCCCCCCC(=O)O` [No. 15, 13-oxo-cis-9-octadecenoic acid], the anti-inflammatory action was “have an anti-inflammatory action”.
In the case of `CCCCC/C=C\CC(=O)CCCCCCCCC(=O)O` [No. 6, 10-oxo-cis-12-octadecenoic acid], the anti-inflammatory action was “have an anti-inflammatory action”.
